pEC50: −log10 of the molar value. “Also recorded” adds a separate entry of the source.
Biological target: GPR35 (Homo sapiens, UniProt Q9HC97)
Test: PathHunter β-Arrestin assay of GPR35 activation (DiscoverX)
Format: cell-based
Settings: for activation of GPR35 (in words): single HMOs, highest concentration tested 10 mM; for pEC50: cell based β-arrestin recruitment, 3x dilutions from 10 mM, duplicate
Method: Six human milk oligosaccharides (LNnT, LNT, 2-FL, diFL, 6′ SL and 3-SL) were sreened for their ability to activate the GPR35 receptor in an in vitro assay.
The GPR35 cell line was expanded from frozen stocks and cultured according to standard procedures. Cells were seeded in a total volume of 20 μL into white walled, 384-well microplates and incubated at 37° C. for the appropriate time prior to testing. All testing was done in duplicate.
HMO samples were shipped to DiscoverX as concentrated stocks in Phosphate Buffered saline. On the test day, a 5× compound working intermediate was prepared in PBS. Five μL of 5× sample was added to cells and incubated at room temperature for 3 to 5 hours.
Assay signal was generated through a single addition of 12.5 μL (50% v/v) of PathHunter Detection reagent cocktail, followed by one-hour incubation at room temperature. Microplates were read following signal generation with a PerkinElmer Envision™ instrument for chemiluminescent signal detection.
Zaprinast (which is known to be an activator of GPR35) was used as positive control.
Percentage activity was calculated using the following formula: % Activity=100%×(mean RLU of test sample−mean RLU of vehicle control)/(mean MAX control ligand−mean RLU of vehicle control).
Dose-responses were generated by iterative 3× dilutions of the highest concentration tested (10 mM).
The samples were diluted in 1×PBS (pH ˜7) at 5× concentrations and sent to DiscoverX. The GPR35 activation assay was performed as described in Example 2.

GPR35, sequence (Q9HC97 whole entry): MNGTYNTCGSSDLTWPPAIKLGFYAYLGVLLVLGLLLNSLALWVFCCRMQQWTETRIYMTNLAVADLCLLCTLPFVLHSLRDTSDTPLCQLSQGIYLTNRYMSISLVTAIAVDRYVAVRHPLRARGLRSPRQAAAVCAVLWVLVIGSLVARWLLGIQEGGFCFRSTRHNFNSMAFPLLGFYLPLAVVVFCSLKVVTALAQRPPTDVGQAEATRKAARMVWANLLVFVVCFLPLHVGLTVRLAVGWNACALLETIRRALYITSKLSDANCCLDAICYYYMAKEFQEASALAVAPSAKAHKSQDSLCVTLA
GPR35, sequence (P32121 whole entry partner): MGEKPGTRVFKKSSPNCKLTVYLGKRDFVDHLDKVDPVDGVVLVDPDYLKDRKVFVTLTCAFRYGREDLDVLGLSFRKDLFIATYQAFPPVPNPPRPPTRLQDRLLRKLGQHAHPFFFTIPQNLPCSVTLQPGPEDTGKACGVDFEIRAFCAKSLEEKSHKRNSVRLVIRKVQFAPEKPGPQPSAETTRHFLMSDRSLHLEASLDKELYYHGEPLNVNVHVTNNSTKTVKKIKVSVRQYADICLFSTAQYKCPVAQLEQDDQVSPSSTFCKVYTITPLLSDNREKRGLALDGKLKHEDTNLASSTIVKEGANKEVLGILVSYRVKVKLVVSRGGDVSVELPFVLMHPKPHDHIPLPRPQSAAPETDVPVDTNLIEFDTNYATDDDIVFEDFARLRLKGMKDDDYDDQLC

SMILES | activation of GPR35 (in words) | activation of GPR35 (in words) (listed as 3-SL) | pEC50 | activation of GPR35 (in words) (listed as difucosyllactose)
CC(=O)N[C@H]1[C@H](O[C@H]2[C@@H](O)[C@@H](CO)O[C@@H](O[C@H]3[C@H](O)[C@@H](O)C(O)O[C@@H]3CO)[C@@H]2O)O[C@H](CO)[C@@H](O[C@@H]2O[C@H](CO)[C@H](O)[C@H](O)[C@H]2O)[C@@H]1O (mixture of isomers) [LNnT, lacto-N-neotetraose] | No activation; also recorded: do not activate |  |  | 
CC(=O)N[C@H]1[C@H]([C@H](O)[C@H](O)CO)O[C@@](O[C@H]2[C@@H](O)[C@@H](CO)O[C@@H](O[C@H]3[C@H](O)[C@@H](O)C(O)O[C@@H]3CO)[C@@H]2O)(C(=O)O)C[C@@H]1O (stereo partly shown) [3SL, 3′-sialyllactose] | No activation | do not activate |  | 
CC(=O)N[C@H]1[C@H]([C@H](O)[C@H](O)CO)O[C@@](OC[C@H]2O[C@@H](O[C@H]3[C@H](O)[C@@H](O)[C@H](O)O[C@@H]3CO)[C@H](O)[C@@H](O)[C@H]2O)(C(=O)O)C[C@@H]1O [6′SL, 6′-sialyllactose] |  |  | 2.19 | 
CC(=O)N[C@H]1[C@H](O[C@H]2[C@@H](O)[C@@H](CO)O[C@@H](O[C@H]3[C@H](O)[C@@H](O)C(O)O[C@@H]3CO)[C@@H]2O)O[C@H](CO)[C@@H](O)[C@@H]1O[C@@H]1O[C@H](CO)[C@H](O)[C@H](O)[C@H]1O (stereo partly shown) [LNT, lacto-N-tetraose] |  |  | 2.35 | 
C[C@@H]1O[C@@H](O[C@H]2[C@H](O[C@H]3[C@H](O[C@@H]4O[C@@H](C)[C@@H](O)[C@@H](O)[C@@H]4O)[C@@H](O)C(O)O[C@@H]3CO)O[C@H](CO)[C@H](O)[C@@H]2O)[C@@H](O)[C@H](O)[C@@H]1O (stereo partly shown) [diFL, difucosyllactose] | No activation |  |  | do not activate

Reference: patent US12109220B2, “Compositions for use in the reduction of nociception in children” (SOCIETE DES PRODUITS NESTLE S.A., priority 2017, dated 2024)
